From patent publication EP3478687B1 (Daewoong Pharmaceutical Co., Ltd., priority 2016, dated 2018)

Experiments:
[1] = target: T1, Recombinant purified human JAK3 (Homo sapiens, UniProt P52333); experiment: JAK3 kinase inhibitory activity, ADP-Glo kinase assay (Promega V9441); type: biochemical; details: ATP 5 uM, 4 ng JAK3 per reaction, 1 hour 30 °C, chemiluminescence
T1 construct: purchased Promega V9441
T1 sequence (P52333 1-1124): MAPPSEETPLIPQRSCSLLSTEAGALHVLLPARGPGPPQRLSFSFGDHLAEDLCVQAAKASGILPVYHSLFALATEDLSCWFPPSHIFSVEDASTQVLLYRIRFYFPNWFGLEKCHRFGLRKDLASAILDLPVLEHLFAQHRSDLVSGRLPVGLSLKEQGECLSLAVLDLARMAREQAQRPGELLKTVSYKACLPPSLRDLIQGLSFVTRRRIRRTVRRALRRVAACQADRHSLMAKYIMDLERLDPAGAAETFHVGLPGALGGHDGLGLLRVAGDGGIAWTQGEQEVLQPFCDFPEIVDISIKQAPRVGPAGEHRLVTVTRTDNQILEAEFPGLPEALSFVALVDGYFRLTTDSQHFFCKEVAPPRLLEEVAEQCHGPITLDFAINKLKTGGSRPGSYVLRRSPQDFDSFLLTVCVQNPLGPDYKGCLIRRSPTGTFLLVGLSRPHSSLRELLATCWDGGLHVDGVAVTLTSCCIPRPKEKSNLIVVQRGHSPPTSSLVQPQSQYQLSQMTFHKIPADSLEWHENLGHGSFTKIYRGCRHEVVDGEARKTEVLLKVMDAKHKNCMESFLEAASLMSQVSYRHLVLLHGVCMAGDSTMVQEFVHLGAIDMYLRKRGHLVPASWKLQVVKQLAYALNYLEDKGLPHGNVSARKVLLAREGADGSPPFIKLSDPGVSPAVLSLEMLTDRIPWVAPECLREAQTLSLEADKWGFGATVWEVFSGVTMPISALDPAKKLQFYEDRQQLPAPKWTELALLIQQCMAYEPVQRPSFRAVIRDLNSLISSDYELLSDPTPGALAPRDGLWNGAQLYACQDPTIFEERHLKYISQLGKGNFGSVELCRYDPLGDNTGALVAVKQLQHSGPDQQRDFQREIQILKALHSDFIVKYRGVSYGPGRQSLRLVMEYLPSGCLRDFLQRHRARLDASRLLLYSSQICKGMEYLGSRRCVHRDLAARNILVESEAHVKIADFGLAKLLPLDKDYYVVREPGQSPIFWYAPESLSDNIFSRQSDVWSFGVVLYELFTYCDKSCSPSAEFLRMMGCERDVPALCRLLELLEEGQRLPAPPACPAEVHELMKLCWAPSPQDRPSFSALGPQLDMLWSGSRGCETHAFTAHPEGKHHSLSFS
Protocol: (§1) JAK3 and BTK kinase inhibitory activities were measured for the compounds prepared in the above Examples through in vitro analysis on the ADP Glow (Glo) platform.
(§2) Specifically, the inhibitory activities of JAK3 and BTK kinase were measured using a JAK3 kinase assay kit (Promega, V9441) and a BTK kinase assay kit (Promega, V9071) which were purchased from Promega. Recombinant purified human JAK3 and BTK were diluted with 1 x kinase reaction buffer (JAK3: 40 mM Tris-Cl, pH 7.5, 20 mM MgCh, 0.1 mg/mL BSA and 50 uM DTT / BTK: 40 mM Tris-Cl, pH 7.5, 20 mM MgCl2, 0.1 mg/mL BSA, 2 mM MnCl2 and 50 uM DTT) and added to a 96 well plate (JAK3: final concentration of 4 ng per reaction/BTK: final concentration of 8 ng per reaction). The compounds were treated so as to be finally a 1% DMSO aqueous solution, and a substrate cocktail containing ATP (JAK3: final concentration of 5 uM / BTK: final concentration of 10 uM) and 0.2 µg/µL of Poly(Glu4, Tyr1) peptide (JAK3 and BTK final concentration) in the total 25 µL reactants was added to a 96-well plate to initiate enzymatic reaction. After incubation (30 °C) for 1 hour, equivalent volume (25 µL per reaction) of ADP Glo was added and incubated (30 °C) for 40 minutes at room temperature. Then, a kinase detection reagent (50 µL per reaction) was added and incubated (30 °C) for 30 minutes at room temperature. The kinase activity was measured by chemiluminescence according to the instructions of ADP Glo kinase assay kit, and the inhibitory activity of the compounds according to the present invention was calculated. For the analysis of the results of each compound, Microsoft Excel was used, and IC50 values were calculated by SigmaPlot software.

[2] = target: T2, Recombinant purified human BTK (Homo sapiens, UniProt Q06187); experiment: BTK kinase inhibitory activity, ADP-Glo kinase assay (Promega V9071); type: biochemical; details: ATP 10 uM, 8 ng BTK per reaction, 1 hour 30 °C, chemiluminescence
T2 construct: purchased Promega V9071
T2 sequence (Q06187 whole entry): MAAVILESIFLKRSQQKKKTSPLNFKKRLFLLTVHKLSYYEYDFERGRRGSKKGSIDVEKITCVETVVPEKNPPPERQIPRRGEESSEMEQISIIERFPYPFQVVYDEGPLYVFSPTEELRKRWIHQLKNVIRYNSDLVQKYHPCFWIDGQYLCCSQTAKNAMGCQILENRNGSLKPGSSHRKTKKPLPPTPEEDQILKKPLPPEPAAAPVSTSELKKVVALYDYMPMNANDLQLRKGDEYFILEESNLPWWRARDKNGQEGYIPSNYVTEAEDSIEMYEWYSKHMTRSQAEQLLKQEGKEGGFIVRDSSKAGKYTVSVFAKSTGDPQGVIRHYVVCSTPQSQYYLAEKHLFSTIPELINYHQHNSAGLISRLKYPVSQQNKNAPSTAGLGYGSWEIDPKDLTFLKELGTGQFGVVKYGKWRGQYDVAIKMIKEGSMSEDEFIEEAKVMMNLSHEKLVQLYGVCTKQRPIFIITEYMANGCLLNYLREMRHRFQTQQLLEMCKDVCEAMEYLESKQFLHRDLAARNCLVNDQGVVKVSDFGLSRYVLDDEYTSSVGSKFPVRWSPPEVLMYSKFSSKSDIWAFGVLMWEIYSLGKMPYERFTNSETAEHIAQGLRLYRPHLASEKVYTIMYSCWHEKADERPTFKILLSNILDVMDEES
Protocol: as §1, §2

IC50 [1] [nM] | IC50 [2] [nM] | Compound
0.5 | 1.8 | C=CC(=O)N1CCC[C@@H](Nc2nc(Nc3cnn(Cc4cccc(OC)c4)c3)nc3[nH]cc(Cl)c23)C1 [Example 41, (R)-1-(3-(5-chloro-2-(1-(3-methoaybenzyl)-1H-pyrazol-4-ylamino)-7H-pyrrolo[2,3-d]pyrimidin-4-ylamino)piperidin-1-yl)prop-2-en-1-one]
5.1 | 3.2 | C=CC(=O)N1CCC[C@@H](Nc2nc(Nc3ccc(N4CCN(C)CC4)cc3)nc3[nH]nc(Cl)c23)C1 [Example 42]
9.9 | 6.7 | C=CC(=O)N1CCC[C@@H](Nc2nc(Nc3ccc(-n4nc(C)cc4C)cc3)nc3[nH]nc(Cl)c23)C1 [Example 43]
0.3 | 2.5 | C=CC(=O)N1CCC[C@@H](Nc2nc(Nc3cnn(CC(F)F)c3)nc3[nH]nc(Cl)c23)C1 [Example 44, (R)-1-(3-(3-chloro-6-(1-(2,2-difluoroethyl)-1H-pyrazol-4-ylamino)-1H-pyrazolo[3,4-d]pyrimidin-4-ylamino)piperidin-1-yl)prop-2-en-1-one]
0.7 | 2.9 | C=CC(=O)N1CCC[C@@H](Nc2nc(Nc3cnn(C)c3)nc3[nH]nc(Cl)c23)C1 [Example 45, (R)-1-(3-(3-chloro-6-(1-methyl-1H-pyrazol-4-ylamino)-1H-pyrazolo [3,4-d]pyrimidin-4-ylamino)piperidin-1-yl)prop-2-en-1-one]
1.1 | 5.2 | C=CC(=O)N1CCC[C@@H](Nc2nc(Nc3cnn(CC(=O)NC)c3)nc3[nH]nc(Cl)c23)C1 [Example 47, (R)-2-(4-(4-(1-acryloylpiperidin-3-ylamino)-3-chloro-1H-pyrazolo[3,4-d]pyrimidin-6-ylamino)-1H-pyrazol-1-yl)-N-methylacetamide]
0.4 | 0.9 | C=CC(=O)N1CCC[C@@H](Nc2nc(Nc3cnn(C4CCOCC4)c3)nc3[nH]nc(Cl)c23)C1 [Example 48, (R)-1-(3-(3-chloro-6-(1-(tetrahydro-2H-pyran-4-yl)-1H-pyrazol-4-ylamino)-1H-pyrazolo[3,4-d]pyrimidin-4-ylamino)piperidin-1-yl)prop-2-en-1-one]
0.7 | 0.9 | C=CC(=O)N1CCC[C@@H](Nc2nc(Nc3cnn(C4CC4)c3)nc3[nH]nc(Cl)c23)C1 [Example 49, (R)-1-(3-(3-chloro-6-(1-cyclopropyl-lH-pyrazol-4-ylamino)-1H-pyrazolo [3,4-d]pyrimidin-4-ylamino)piperidin-1-yl)prop-2-en-1-one]
0.8 | 1.8 | C=CC(=O)N1CCC[C@@H](Nc2nc(Nc3cnn(C(C)C)c3)nc3[nH]nc(Cl)c23)C1 [Example 50, (R)-1-(3-(3-chloro-6-(1-isopropyl-1H-pyrazol-4-ylamino)-1H-pyrazolo[3,4-d]pyrimidin-4-ylamino)piperidin-1-yl)prop-2-en-1-one]
0.8 | 1.8 | C=CC(=O)N1CCC[C@@H](Nc2nc(Nc3cnn(CCC)c3)nc3[nH]nc(Cl)c23)C1 [Example 51, (R)-1-(3-(3-chloro-6-(1-propyl-lH-pyrazol-4-ylamino)-1H-pyrazolo [3,4-d]pyrimidin-4-ylamino)piperidin-1-yl)prop-2-en-1-one]
0.2 | 0.8 | C=CC(=O)N1CCC[C@@H](Nc2nc(Nc3cnn(CC#N)c3)nc3[nH]nc(Cl)c23)C1 [Example 52, (R)-2-(4-(4-(1-acryloylpiperidin-3-ylamino)-3-chloro-1H-pyrazolo[3,4-d]pyrimidin-6-ylamino)-1H-pyrazol-1-yl)acetonitrile]
1 | 0.9 | C=CC(=O)N1CCC[C@@H](Nc2nc(Nc3cnn(C(C)(C)C)c3)nc3[nH]nc(Cl)c23)C1 [Example 53, (R)-1-(3-(6-(1-tert-butyl-1H-pyrazol-4-ylamino)-3-chloro-1H-pyrazolo[3,4-d]pyrimidin-4-ylamino)piperidin-1-yl)prop-2-en-1-one]
0.7 | 1.8 | C=CC(=O)N1CCC[C@@H](Nc2nc(Nc3cnn(CCN4CCOCC4)c3)nc3[nH]nc(Cl)c23)C1 [Example 54, (R)-1-(3-(3-chloro-6-(1-(2-morpholinoethyl)-1H-pyrazol-4-ylamino)-1H-pyrazolo [3,4-d]pyrimidin-4-ylamino)piperidin-1-yl)prop-2-en-1-one]
1.3 | 1.2 | C=CC(=O)N1CCC[C@@H](Nc2nc(Nc3cnn(CC(C)C)c3)nc3[nH]nc(Cl)c23)C1 [Example 55, (R)-1-(3-(3-chloro-6-(1-isobutyl-1H-pyrazol-4-ylamino)-1H-pyrazolo [3,4-d]pyrimidin-4-ylamino)piperidin-1-yl)prop-2-en-1-one]
0.3 | 1.8 | C=CC(=O)N1CCC[C@@H](Nc2nc(Nc3cnn(CC(F)(F)F)c3)nc3[nH]nc(Cl)c23)C1 [Example 56, (R)-1-(3-(3-chloro-6-(1-(2,2,2-trifluoroethyl)-1H-pyrazol-4-ylamino)-1H-pyrazolo[3,4-d]pyrimidin-4-ylamino)piperidin-1-yl)prop-2-en-1-one]
0.4 | 1.8 | C=CC(=O)N1CCC[C@@H](Nc2nc(Nc3cnn(CCN(CC)CC)c3)nc3[nH]nc(Cl)c23)C1 [Example 57, (R)-1-(3-(3-chloro-6-(1-(2-(diethylamino)ethyl)-1H-pyrazol-4-ylamino)-1H-pyrazolo [3,4-d]pyrimidin-4-ylamino)piperidin-1-yl)prop-2-en-1-one]
0.5 | 1.8 | C=CC(=O)N1CCC[C@@H](Nc2nc(Nc3cnn(Cc4cccc(OC)c4)c3)nc3[nH]nc(Cl)c23)C1 [Example 58, (R)-1-(3-(3-chloro-6-(1-(3-methoaybenzyl)-1H-pyrazol-4-ylamino)-1H-pyrazolo[3,4-d]pyrimidin-4-ylamino)piperidin-1-yl)prop-2-en-1-one]
1.4 | 1.8 | C=CC(=O)N1CCC[C@@H](Nc2nc(Nc3cnoc3)nc3[nH]nc(Cl)c23)C1 [Example 59, (R)-1-(3-(3-chloro-6-(isoxazol-4-ylamino)-1H-pyrazolo[3,4-d]pyrimidin-4-ylamino)piperidin-1-yl)prop-2-en-1-one]
0.2 | 1.7 | C=CC(=O)N1CCC[C@@H](Nc2nc(Nc3cnn(CC(=O)NC)c3)nc3[nH]cc(Cl)c23)C1 [Example 60, (R)-2-(4-((4-((1-acryloylpiperidin-3-yl)amino)-5-chloro-7H-pyrrolo[2,3-d]pyrimidin-2-yl)amino)-lH-pyrazol-1-yl)-N-methylacetamide]
1.1 | 1.7 | C=CC(=O)N1CCC[C@@H](Nc2nc(Nc3ccc(N4CCOCC4)cc3)nc3[nH]cc(Cl)c23)C1 [Example 61, (R)-1-(3-((5-chloro-2-((4-morpholinophenyl)amino)-7H-pyrrolo[2,3-d]pyrimidin-4-yl)amino)piperidin-1-yl)prop-2-en-1-one]
0.2 | 1.7 | C=CC(=O)N1CCC[C@@H](Nc2nc(Nc3cnn(C4CC4)c3)nc3[nH]cc(Cl)c23)C1 [Example 62, (R)-1-(3-((5-chloro-2-((1-cyclopropyl-1H-pyrazol-4-yl)amino)-7H-pyrrolo[2,3-d]pyrimidin-4-yl)amino)piperidin-1-yl)prop-2-en-1-one]
